The values that follow come from patent US8445428B2, “Plant derived antibiotic peptide rich in glycine” (Uniao Brasiliense de Educacao e Cultura—UBEC, priority 2006, dated 2013).

Holding throughout (assay type): cell-based
One test relates to Staphylococcus aureus. Nature of the test: Preliminary bioassays against gram-positive bacteria. As to conditions: such as Staphylococcus aureus.
A further test relates to Proteus sp. The test can be described thus: Bioassay against bacteria: growth in LB medium, absorbance at 600 nm. As to conditions: micromolar concentrations, 37° C. for 4 hours. The protocol:
(§1) The bioassays against bacteria were performed using 1.0 ml of Luria Bertani medium (NaCl 10 g.l^−1, yeast extract 5 g.l^−1 and bactopeptone […]). Two species, namely Klebsiella sp. and Proteus sp., were used, with the protein under test was restricted to micromolar concentrations. The bacteria grew in the LB medium during 16-18 hours at 37° C. before being evaluated with the proteins. Distilled water was used as negative control and chloramphenicol 40 μg.ml^−1 as positive control. Protein from guava seeds was incubated against the bacteria at 37° C. for 4 hours. Bacterial growth was assessed by an absorbance reading at 600 nm at each hour of the experiment. Each experiment was performed in triplicate.

The subject of a further test is Klebsiella sp. The description is as above. To be noted: micromolar concentrations, 37° C. for 4 hours. The protocol: as §1

Regarding “RESPSSRMECYEQAERYGYGGYGGGRYGGGYGSGRGQPVGQGVERSHDDNRNQPR (SEQ ID NO: 1) (RESPSSRMECYEQAERYGYGGYGGGRYGGGYGSGRGQPVGQGVERSHDDNRNQPR; listed as Psidium guajava) [Pg-AMP1, glycine rich anti-microbial peptide of 55 amino acids, about 5 kDa, purified from guava (Psidium guajava) seeds]”, the inhibitory activity entry with Staphylococcus aureus is on record as “did not reveal any inhibitory activity”; with Proteus sp., 30%; in the test on Klebsiella sp., 90%.
